Read-outs that look alike come from different tables or passages of the source.

One assay relates to filamentous bacteria. As to conditions: for Observations (filamentous bacteria): sample 48 days after start up, magnification x220. As to the method:
Samples were taken from the semi-continuous reactors described in Example 1, 48 days after the start up of the trial.
A sample of each of the Compound X concentrations tested in the reactors of Example 1 was evaluated in this test. Accordingly, samples with 2 and 4 milligrams per liter per day treatment of Compound X were tested, as well as a control with no treatment by Compound X.
The samples were observed through phase contrast microscope magnification×220.

The test system of assay [1] is filamentous bacteria in the sludge. As to conditions: 2 and 4 mg/l/day Compound X, flash mixing, vs untreated control, 52 day experiment. The text has this:
(§1) A series of semi-continuous chemostat reactors was constructed to simulate wastewater treatment processes.
(§2) The central part of the equipment is the biological chemostat reactor 1. The reactor vessel 2 is made of glass, with an internal volume of 10 liters and is fitted with pH 3 and dissolved oxygen 4 sensors and an air sparge 5. This contains the sludge, which is, essentially, a mass of typical wastewater treatment microorganisms. The reactor operates at an ambient temperature (approximately 20° C.).
(§3) Simulated wastewater 13 is contained in a separate vessel 6 and maintained at 4° C. to prevent microbial spoilage. It is transferred into the reactor via a supply line 7 and a peristaltic pump 8.
(§4) A recirculating line 9 is provided on the reactor comprising a length of flexible silicone tubing and a peristaltic pump 10. The peristaltic pump extracts the sludge from the reactor into the recirculation line. The candidate water-soluble biocide is introduced into this line 9 through a needle 11, which is fed by a syringe pump 12. Using this system it is possible to achieve “flash mixing” which ensures rapid contact of the water-soluble biocide with the sludge microorganisms. […]
(§5) Compound X was evaluated in the test. […] Two concentrations were evaluated: 2 and 4 milligrams per liter per day, as well as a control with no treatment by Compound X.

In assay [2] the test system is protozoans and other higher organisms. As to conditions: 2 and 4 mg/l/day Compound X, treated sludge relative to untreated.
Excerpt: as §1, §2, §3, §4, §5

“tetrakis(hydroxymethyl)phosphonium sulphate [Compound X]”: the “Observations (filamentous bacteria)” value with filamentous bacteria (2 mg/l/day) and in the assay on filamentous bacteria (4 mg/l/day) was “No filamentous bacteria present,” each time. For the same substance, the “reduction of filamentous bacteria and sludge settling” value with filamentous bacteria (two doses of 4 mg/l/day (4 mg/l dose on two consecutive days)) was “Reduction of filamentous bacteria and thus improved sludge settling”. In addition, the “level of filaments after treatment was stopped” value in the assay on filamentous bacteria (two doses of 4 mg/l/day, without further treatment) was “remained low for more than one week”. Moreover, the “filamentous bacteria in the sludge” value in assay [1] is “substantially absent”. In assay [2], the “concentration of protozoans and other higher organisms in the sludge” value is “significantly higher concentration of protozoans and other higher organisms”.

These data come from US7638055B2, “Sludge quality” (Rhodia Operations, priority 2004, dated 2009).
